From publication PMC12154031, “Screening and Validation: AI-Aided Discovery of Dipeptidyl Peptidase-4 Inhibitory Peptides from Hydrolyzed Rice Proteins” (Foods, 2025)
Like-named read-outs stand apart in the source and are kept apart here. No end group written: not given here.

Experiments:
DPP-4 [1] = molecular target: T1, DPP-4 (Homo sapiens, UniProt P27487); test: DPP-IV-inhibitory activity, Gly-Pro-pNA substrate; format: biochemical; settings: 37 °C, 15 min; for IC50: Tris–HCl 20 mM pH 8.0, substrate Gly-Pro-pNA 1 mM (50 µL), 0.05 mg/mL DPP-4 (10 µL), peptide in ddH2O, dark, absorbance 405 nm, triplicate, four-parameter logistic fit
T1 construct: purchased Adamas (Shanghai Adamas Reagent Co., Ltd., Shanghai, China)
T1 sequence (P27487 whole entry): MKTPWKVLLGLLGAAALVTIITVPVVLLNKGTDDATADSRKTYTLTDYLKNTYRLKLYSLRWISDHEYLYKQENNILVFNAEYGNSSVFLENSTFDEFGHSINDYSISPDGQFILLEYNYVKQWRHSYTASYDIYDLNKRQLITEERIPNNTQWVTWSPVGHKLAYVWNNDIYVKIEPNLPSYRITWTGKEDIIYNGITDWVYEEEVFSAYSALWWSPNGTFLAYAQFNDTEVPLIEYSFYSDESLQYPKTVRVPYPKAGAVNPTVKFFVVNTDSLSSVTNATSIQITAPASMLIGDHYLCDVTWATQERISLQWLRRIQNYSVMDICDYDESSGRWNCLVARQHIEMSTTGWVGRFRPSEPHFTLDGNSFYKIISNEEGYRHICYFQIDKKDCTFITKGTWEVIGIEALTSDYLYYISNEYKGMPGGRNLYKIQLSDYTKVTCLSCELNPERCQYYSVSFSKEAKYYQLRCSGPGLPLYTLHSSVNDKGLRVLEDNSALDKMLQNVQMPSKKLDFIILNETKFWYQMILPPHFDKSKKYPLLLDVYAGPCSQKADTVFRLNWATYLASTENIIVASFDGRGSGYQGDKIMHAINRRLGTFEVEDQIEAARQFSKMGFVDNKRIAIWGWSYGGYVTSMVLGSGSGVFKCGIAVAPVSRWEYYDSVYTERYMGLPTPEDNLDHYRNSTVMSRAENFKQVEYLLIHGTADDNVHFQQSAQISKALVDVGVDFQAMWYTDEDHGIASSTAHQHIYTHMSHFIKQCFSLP
Experimental: The assay method for measuring the peptide inhibition of DPP-4 was based on the combination of two established protocols: the peptides were dissolved in ddH2O to prepare a gradient of concentrations and the DPP-4 enzyme was diluted in Tris–HCl (20 mM, pH 8.0). In a 96-well plate, 30 µL ddH2O, 10 µL peptide solution, 50 µL substrate (1 mM), and 10 µL DPP-4 enzyme (0.05 mg/mL) were added sequentially. Each peptide concentration was tested in triplicate and incubated at 37 °C in the dark for 15 min, and then 100 µL of 0.1 M NaHCO3 solution was added to stop the reaction. The absorbance at 405 nm was measured on a microplate reader, and the percent inhibition of DPP-4 was calculated at each concentration. The IC50 values for the four peptides were determined by fitting the dose–response curves with the log peptide concentration on the x-axis and the DI (%) on the y-axis. The DPP-IV-inhibition (DI) was calculated as follows:(8) DI%=(1−A405peptide−A405buffer/A405positive control−A405negtive control)×[…] where A405 (peptide) represents the optical density (at 405 nm) of the enzyme (DPP-IV) in the presence of the substrate (Gly-Pro-p-nitroanilide) and inhibitor (inhibitory peptide); A405 (buffer) represents the optical density of ddH2O; A405 (positive reaction) represents the optical density of the enzyme and the substrate in the absence of inhibitor; and A405 (negative reaction) represents the optical density of the enzyme in the absence of the substrate and inhibitor.
Origin 2024 was used to sort out the physical and chemical property data and create heatmaps to visualize the correlation between the peptide activity, the docking energy, and the physicochemical properties. GraphPad Prism 10 was used to perform non-linear regression of the DPP-4 percent inhibition versus the log[concentration]. The differences between the IC50 values of DPP-IV were subjected to the ordinary one-way ANOVA test. A p-value < 0.05 was considered significant. Other images were created by Python 3.13.2 and Adobe Illustrator 2022. We evaluated Section 2 of the article using the TRIPOD (Transparent Reporting of a multivariable prediction model for Individual Prognosis Or Diagnosis) framework from the EQUATOR Network.

DPP-4 [2] = molecular target: T1, DPP-4; design: method as in PMID 29963014, PMID 6427168; settings: known DPP-4 inhibitory peptide, positive control; ref [41],[42]; cited from earlier work

Substance	IC50 (DPP-4 [1]; read-out: IC50) [µM]	other results
CPPPPAAY [rice-derived proline-rich peptide, synthesized, purity of 95%]		IC50 (DPP-4 [1]): could not be determined; DPP-4 inhibition (DI%), result in words (DPP-4 [1]; within the tested concentration range, pH 8.0, n = 3): showed no inhibitory effect
PPPPPY [PPPPPY]	153 ± 5.7	
Diprotin A [IPI]		IC50 (DPP-4 [2]): ~3.5 µM
PPPSPPPV [PPPSPPPV]	216 ± 4.5	
PPPPPPPPA [PPPPPPPPA]	177 ± 6	
